Reference: patent publication US20180250295A1, “Treatment of Motor and Movement Disorder Side Effects Associated with Parkinson's Disease Treatments” (Psychogenics, Inc., priority 2012, published 2018)

Columns and labels:
[1] = test system: Parkinson's patients with L-DOPA induced dyskinesias; assay: Safety and tolerability of eltoprazine in the levodopa challenge-dose study; type: in vivo, human; conditions: single oral doses of 2.5 mg, 5 mg, 7.5 mg
From the text: (§1) This example describes a multicenter, randomized, double-blind, placebo-controlled, dose finding study of oral eltoprazine in Parkinson's patients with L-DOPA induced dyskinesias, in a levodopa challenge-dose setting in Parkinson's Disease. A total of 22 patients participated in the study, out of which 18 patients fulfilled the protocol in terms of eligibility, interventions, and outcome assessment. […]

5-HT1a receptor = molecular target: T1, 5-HT1a receptor (Homo sapiens, UniProt P08908); conditions: relative to 5-HT1b; cited from earlier work
T1 sequence (P08908 1-422): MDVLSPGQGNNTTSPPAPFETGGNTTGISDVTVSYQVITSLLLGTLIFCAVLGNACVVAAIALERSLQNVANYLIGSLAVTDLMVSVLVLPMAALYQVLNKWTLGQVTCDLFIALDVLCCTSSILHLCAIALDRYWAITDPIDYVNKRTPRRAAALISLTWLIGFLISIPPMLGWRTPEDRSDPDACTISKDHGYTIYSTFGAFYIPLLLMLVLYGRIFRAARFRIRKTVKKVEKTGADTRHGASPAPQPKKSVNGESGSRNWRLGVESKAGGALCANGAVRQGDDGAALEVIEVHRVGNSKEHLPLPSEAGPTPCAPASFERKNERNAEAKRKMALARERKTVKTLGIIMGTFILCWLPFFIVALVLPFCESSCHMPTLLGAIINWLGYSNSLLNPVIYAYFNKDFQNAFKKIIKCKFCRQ

[2] = test system: Parkinson's patients with L-DOPA induced dyskinesias; assay: Levodopa challenge-dose study of oral eltoprazine, dyskinesia ratings (CDRS, Rush DRS); type: in vivo, human; conditions: for levodopa-induced dyskinesia (LID) measured by the CDRS scale: compared to placebo
From the text: This example describes a multicenter, randomized, double-blind, placebo-controlled, dose finding study of oral eltoprazine in Parkinson's patients with L-DOPA induced dyskinesias, in a levodopa challenge-dose setting in Parkinson's Disease. A total of 22 patients participated in the study, out of which 18 patients fulfilled the protocol in terms of eligibility, interventions, and outcome assessment.
This study also assessed the safety and tolerability of eltoprazine in adults with Parkinson's Disease using the following measures: a) population mean values for the change in dyskinesia ratings between the placebo and screening baseline values and any of the eltoprazine dosages used, calculated as the peak-effect on CDRS of any study medication; b) population mean values for the change in dyskinesia ratings between the placebo and screening baseline values and any of the eltoprazine dosages used, calculated as the AuC on Rush DRS of any study medication; c) any changes in the UPDRS-III total score; d) any change in the diary data set, between the baseline and placebo and any of the three study medication tests; e) any deterioration of the HADS scores after study medication compared with placebo; f) any development of depression over the course of the study period, determined by the Montgomery Asberg Depression Rating Scale (MADRS) and clinical judgment; g) comparison between the effects on Rush Dyskinesia Rating Scale (DRS) and Clinical Dyskinesia Rating Scale (CDRS) Area under the Curve (AuC) and peak of dose effects for the three study medication dosages.
During the first visit, patients underwent screening for inclusion/exclusion criteria and safety assessments. Symptoms of parkinsonism, depression, and anxiety were assessed, and screening for significant L-DOPA dyskinesias were conducted using a challenge dose (150%) of L-DOPA. Subjects who were taking a prohibited medication were required to complete a washout period of appropriate length, as determined by the investigator. […]

dopamine receptors = conditions: cited from earlier work
5-HT1b receptor = 5-HT1b receptor (Homo sapiens, UniProt P28222); conditions: relative to 5-HT1a; cited from earlier work
5-HT1d receptor = conditions: compared with serotonin; cited from earlier work
5-HT1 = conditions: with respect to all receptors other than 5-HT1; cited from earlier work
[3] = test system: Parkinson's patients with L-DOPA induced dyskinesias; assay: Levodopa challenge-dose study, UPDRS-III rating of parkinsonian symptoms (L-DOPA efficacy); type: in vivo, human
From the text: as §1
During each of five visits, and after a two-hour fast, each patient received a challenge dosage (150%—up to a maximum of 250 mg) of levodopa. […] The patients were periodically recorded for 180 minutes after treatment, and the videos were evaluated in a blinded manner. […]
Filming occurred 30 minutes prior to, and every 30 minutes up to 180 minutes after a challenge test of L-DOPA and study medication. […] Video taped records of each sequence were assessed by separate individual qualified raters at both of the two clinical centers.
Analyses were done on both the intention-to-treat (ITT) and per protocol (PP) population, if applicable. The change between test sessions of the highest observed Unified Parkinson's Disease Rating Scale-III (UPDRS) within each session will be calculated between the randomised placebo test session and each active test session and will be analysed with Wilcoxon Signed Rank test on the ITT population.

Chain of 5-HT1b receptor (P28222 whole entry): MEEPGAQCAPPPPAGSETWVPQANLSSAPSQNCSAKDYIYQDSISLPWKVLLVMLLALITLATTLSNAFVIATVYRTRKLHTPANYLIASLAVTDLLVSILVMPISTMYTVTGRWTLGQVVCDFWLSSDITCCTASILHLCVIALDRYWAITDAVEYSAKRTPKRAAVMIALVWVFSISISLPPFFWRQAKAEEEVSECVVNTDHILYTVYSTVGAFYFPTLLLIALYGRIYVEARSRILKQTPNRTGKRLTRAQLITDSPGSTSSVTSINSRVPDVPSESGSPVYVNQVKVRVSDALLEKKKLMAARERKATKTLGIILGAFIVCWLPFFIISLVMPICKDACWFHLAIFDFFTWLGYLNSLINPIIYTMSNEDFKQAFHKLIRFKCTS

Compound: c1cc2c(c(N3CCNCC3)c1)OCCO2 [eltoprazine, 1-(2,3-dihydro-1,4-benzodioxanyl-5-yl) piperazine]
- serious adverse events [1]: no serious adverse events
- tolerability [1]: well tolerated
- agonism and affinity at the 5-HT1a receptor (5-HT1a receptor): mixed 5-HT1a/5-HT1b receptor agonist with roughly equipotent affinity
- LID as measured by the Rush Scale AUC ([2]; 5 mg single oral dose): reduced LID in PD patients statistically significantly
- levodopa-induced dyskinesia (LID) measured by the CDRS scale ([2]; 5 mg single oral dose, p=0.0007, L-DOPA challenge dose 150%): statistically significantly reduced LID
- levodopa-induced dyskinesia (LID) measured by the CDRS scale ([2]; 7.5 mg single oral dose, p=0.0467, L-DOPA challenge dose 150%): statistically significantly reduced LID
- affinity for dopamine receptors (dopamine receptors): no relevant affinity for dopamine receptors
- agonism and affinity at the 5-HT1b receptor (5-HT1b receptor): mixed 5-HT1a/5-HT1b receptor agonist with roughly equipotent affinity
- affinity for the 5-HT1d receptor (5-HT1d receptor): lower affinity for the 5-HT1d receptor
- binding selectivity (5-HT1): selective 5-HT1 ligand
- L-DOPA efficacy as measured by the UPDRS score ([3]; 5 mg and 7.5 mg doses): did not affect L-DOPA efficacy
- change in UPDRS-III of parkinsonian symptoms after eltoprazine administration ([3]; FIG. 2): no significant change
